Organism: Rattus norvegicus
Test: DrugMatrix - Regimen: Daily Repeat
Format: toxicity, organism-based, Sprague-Dawley
Design: regimen Daily Repeat, gender Male, age 6-8 weeks
Details: in vivo, po, route oral GAVAGE, vehicle 100 % WATER; for BASOPHIL / EOSINOPHIL / ERYTHROCYTE COUNT / HEMATOCRIT / HEMOGLOBIN / LEUKOCYTE COUNT / LYMPHOCYTE / MEAN CORPUSCULAR HEMOGLOBIN / MEAN CORPUSCULAR HEMOGLOBIN CONCENTRATION / MEAN CORPUSCULAR VOLUME / MONOCYTE / NEUTROPHIL / PLATELET COUNT: tissue Blood; for ALANINE AMINOTRANSFERASE / ALBUMIN / ALKALINE PHOSPHATASE / ASPARTATE AMINOTRANSFERASE / BLOOD UREA NITROGEN / CHLORIDE / CHOLESTEROL / CREATINE PHOSPHOKINASE / CREATININE / GLUCOSE / PHOSPHORUS / POTASSIUM / SODIUM / TOTAL BILIRUBIN / TOTAL PROTEIN: tissue Plasma
[1] = 0 mg/kg, 72 h, dose level Control, time 3 day
[2] = 0 mg/kg, 120 h, dose level Control, time 5 day
[3] = 8 mg/kg, 72 h, dose level Low, time 3 day
[4] = 8 mg/kg, 120 h, dose level Low, time 5 day
[5] = 29 mg/kg, 72 h, dose level High, time 3 day
[6] = 29 mg/kg, 120 h, dose level High, time 5 day

CCN[C@@H](C)Cc1cccc(C(F)(F)F)c1 [DEXFENFLURAMINE]
BASOPHIL [1]: 0% | EOSINOPHIL [1]: 0.5% | ERYTHROCYTE COUNT [1]: 5.8 x10E6/uL | HEMATOCRIT [1]: 35.07% | HEMOGLOBIN [1]: 14.12 G/DL | LEUKOCYTE COUNT [1]: 13.7 x10E3/uL | LYMPHOCYTE [1]: 82.33% | MEAN CORPUSCULAR HEMOGLOBIN [1]: 24.38 pg | MEAN CORPUSCULAR HEMOGLOBIN CONCENTRATION [1]: 40.28 G/DL | MEAN CORPUSCULAR VOLUME [1]: 60.52 fL | MONOCYTE [1]: 2.67% | NEUTROPHIL [1]: 14.5% | PLATELET COUNT [1]: 911.5 x10E3/uL | ALANINE AMINOTRANSFERASE [1]: 36.83 u/L | ALBUMIN [1]: 3.75 G/DL | ALKALINE PHOSPHATASE [1]: 399.83 u/L | ASPARTATE AMINOTRANSFERASE [1]: 66 u/L | BLOOD UREA NITROGEN [1]: 14.67 mg/dL | CHLORIDE [1]: 101.67 MEQ/L | CHOLESTEROL [1]: 66.33 mg/dL | CREATINE PHOSPHOKINASE [1]: 139.5 u/L | CREATININE [1]: 0.92 mg/dL | GLUCOSE [1]: 175 mg/dL | PHOSPHORUS [1]: 11.42 mg/dL | POTASSIUM [1]: 7.03 MEQ/L | SODIUM [1]: 148.5 MEQ/L | TOTAL BILIRUBIN [1]: 1.13 mg/dL | TOTAL PROTEIN [1]: 6.87 G/DL | BASOPHIL [2]: 0% | EOSINOPHIL [2]: 0.2% | ERYTHROCYTE COUNT [2]: 6.02 x10E6/uL | HEMATOCRIT [2]: 36.48% | HEMOGLOBIN [2]: 14.38 G/DL | LEUKOCYTE COUNT [2]: 12.34 x10E3/uL | LYMPHOCYTE [2]: 83% | MEAN CORPUSCULAR HEMOGLOBIN [2]: 23.92 pg | MEAN CORPUSCULAR HEMOGLOBIN CONCENTRATION [2]: 39.44 G/DL | MEAN CORPUSCULAR VOLUME [2]: 60.66 fL | MONOCYTE [2]: 3% | NEUTROPHIL [2]: 13.8% | PLATELET COUNT [2]: 1190.6 x10E3/uL | ALANINE AMINOTRANSFERASE [2]: 43 u/L | ALBUMIN [2]: 3.73 G/DL | ALKALINE PHOSPHATASE [2]: 393 u/L | ASPARTATE AMINOTRANSFERASE [2]: 62.33 u/L | BLOOD UREA NITROGEN [2]: 16.33 mg/dL | CHLORIDE [2]: 101.67 MEQ/L | CHOLESTEROL [2]: 65.5 mg/dL | CREATINE PHOSPHOKINASE [2]: 130.67 u/L | CREATININE [2]: 0.58 mg/dL | GLUCOSE [2]: 180.67 mg/dL | PHOSPHORUS [2]: 11.28 mg/dL | POTASSIUM [2]: 7.05 MEQ/L | SODIUM [2]: 148.17 MEQ/L | TOTAL BILIRUBIN [2]: 0.72 mg/dL | TOTAL PROTEIN [2]: 6.83 G/DL | BASOPHIL [3]: 0% | EOSINOPHIL [3]: 0% | ERYTHROCYTE COUNT [3]: 5.97 x10E6/uL | HEMATOCRIT [3]: 35.8% | HEMOGLOBIN [3]: 14.33 G/DL | LEUKOCYTE COUNT [3]: 8.6 x10E3/uL | LYMPHOCYTE [3]: 86.33% | MEAN CORPUSCULAR HEMOGLOBIN [3]: 24.03 pg | MEAN CORPUSCULAR HEMOGLOBIN CONCENTRATION [3]: 40.07 G/DL | MEAN CORPUSCULAR VOLUME [3]: 60 fL | MONOCYTE [3]: 3.67% | NEUTROPHIL [3]: 10% | PLATELET COUNT [3]: 1151 x10E3/uL | ALANINE AMINOTRANSFERASE [3]: 34.67 u/L | ALBUMIN [3]: 3.8 G/DL | ALKALINE PHOSPHATASE [3]: 406.67 u/L | ASPARTATE AMINOTRANSFERASE [3]: 62.67 u/L | BLOOD UREA NITROGEN [3]: 16 mg/dL | CHLORIDE [3]: 100.33 MEQ/L | CHOLESTEROL [3]: 70 mg/dL | CREATINE PHOSPHOKINASE [3]: 167.33 u/L | CREATININE [3]: 0.77 mg/dL | GLUCOSE [3]: 174 mg/dL | PHOSPHORUS [3]: 11.97 mg/dL | POTASSIUM [3]: 6.93 MEQ/L | SODIUM [3]: 148.67 MEQ/L | TOTAL BILIRUBIN [3]: 0.67 mg/dL | TOTAL PROTEIN [3]: 6.7 G/DL | BASOPHIL [4]: 0% | EOSINOPHIL [4]: 0% | ERYTHROCYTE COUNT [4]: 6.17 x10E6/uL | HEMATOCRIT [4]: 36.97% | HEMOGLOBIN [4]: 14.47 G/DL | LEUKOCYTE COUNT [4]: 12.77 x10E3/uL | LYMPHOCYTE [4]: 91.67% | MEAN CORPUSCULAR HEMOGLOBIN [4]: 23.5 pg | MEAN CORPUSCULAR HEMOGLOBIN CONCENTRATION [4]: 39.13 G/DL | MEAN CORPUSCULAR VOLUME [4]: 60 fL | MONOCYTE [4]: 1.67% | NEUTROPHIL [4]: 6.67% | PLATELET COUNT [4]: 1202.33 x10E3/uL | ALANINE AMINOTRANSFERASE [4]: 37 u/L | ALBUMIN [4]: 3.83 G/DL | ALKALINE PHOSPHATASE [4]: 391.67 u/L | ASPARTATE AMINOTRANSFERASE [4]: 62.67 u/L | BLOOD UREA NITROGEN [4]: 14 mg/dL | CHLORIDE [4]: 102.67 MEQ/L | CHOLESTEROL [4]: 62.67 mg/dL | CREATINE PHOSPHOKINASE [4]: 107 u/L | CREATININE [4]: 0.6 mg/dL | GLUCOSE [4]: 196.67 mg/dL | PHOSPHORUS [4]: 12.6 mg/dL | POTASSIUM [4]: 7.37 MEQ/L | SODIUM [4]: 148.67 MEQ/L | TOTAL BILIRUBIN [4]: 0.53 mg/dL | TOTAL PROTEIN [4]: 7 G/DL | BASOPHIL [5]: 0% | EOSINOPHIL [5]: 0.33% | ERYTHROCYTE COUNT [5]: 6.47 x10E6/uL | HEMATOCRIT [5]: 37.87% | HEMOGLOBIN [5]: 15.5 G/DL | LEUKOCYTE COUNT [5]: 12.63 x10E3/uL | LYMPHOCYTE [5]: 88% | MEAN CORPUSCULAR HEMOGLOBIN [5]: 24.03 pg | MEAN CORPUSCULAR HEMOGLOBIN CONCENTRATION [5]: 41 G/DL | MEAN CORPUSCULAR VOLUME [5]: 58.6 fL | MONOCYTE [5]: 2% | NEUTROPHIL [5]: 9.67% | PLATELET COUNT [5]: 1385.67 x10E3/uL | ALANINE AMINOTRANSFERASE [5]: 27 u/L | ALBUMIN [5]: 3.7 G/DL | ALKALINE PHOSPHATASE [5]: 285.67 u/L | ASPARTATE AMINOTRANSFERASE [5]: 55.33 u/L | BLOOD UREA NITROGEN [5]: 13 mg/dL | CHLORIDE [5]: 102 MEQ/L | CHOLESTEROL [5]: 63.67 mg/dL | CREATINE PHOSPHOKINASE [5]: 119.67 u/L | CREATININE [5]: 0.7 mg/dL | GLUCOSE [5]: 160 mg/dL | PHOSPHORUS [5]: 10.57 mg/dL | POTASSIUM [5]: 6.47 MEQ/L | SODIUM [5]: 151 MEQ/L | TOTAL BILIRUBIN [5]: 0.47 mg/dL | TOTAL PROTEIN [5]: 6.57 G/DL | BASOPHIL [6]: 0% | EOSINOPHIL [6]: 0% | ERYTHROCYTE COUNT [6]: 6.71 x10E6/uL | HEMATOCRIT [6]: 38.87% | HEMOGLOBIN [6]: 15.1 G/DL | LEUKOCYTE COUNT [6]: 11.3 x10E3/uL | LYMPHOCYTE [6]: 92.67% | MEAN CORPUSCULAR HEMOGLOBIN [6]: 22.53 pg | MEAN CORPUSCULAR HEMOGLOBIN CONCENTRATION [6]: 38.9 G/DL | MEAN CORPUSCULAR VOLUME [6]: 58 fL | MONOCYTE [6]: 1.67% | NEUTROPHIL [6]: 5.67% | PLATELET COUNT [6]: 1314.33 x10E3/uL | ALANINE AMINOTRANSFERASE [6]: 33.67 u/L | ALBUMIN [6]: 3.67 G/DL | ALKALINE PHOSPHATASE [6]: 333.67 u/L | ASPARTATE AMINOTRANSFERASE [6]: 57.67 u/L | BLOOD UREA NITROGEN [6]: 15 mg/dL | CHLORIDE [6]: 101 MEQ/L | CHOLESTEROL [6]: 66.67 mg/dL | CREATINE PHOSPHOKINASE [6]: 104.67 u/L | CREATININE [6]: 0.6 mg/dL | GLUCOSE [6]: 197.33 mg/dL | PHOSPHORUS [6]: 12.47 mg/dL | POTASSIUM [6]: 6.47 MEQ/L | SODIUM [6]: 149.67 MEQ/L | TOTAL BILIRUBIN [6]: 0.33 mg/dL | TOTAL PROTEIN [6]: 6.57 G/DL

Source: ChEMBL document CHEMBL3885881, “DrugMatrix”
